Measured values as given in ChEMBL document CHEMBL3885881, “DrugMatrix”.

Species: Rattus norvegicus
Assay: DrugMatrix - Regimen: Daily Repeat
Assay type: toxicity, organism-based, Sprague-Dawley
Set-up: regimen Daily Repeat, gender Male, age 6-8 weeks
Conditions: in vivo, iv, vehicle 100 % SALINE; for ABSOLUTE BASOPHIL / ABSOLUTE EOSINOPHIL / ABSOLUTE LYMPHOCYTE / ABSOLUTE MONOCYTE / ABSOLUTE SEGMENTED NEUTROPHIL / BASOPHIL / EOSINOPHIL / ERYTHROCYTE COUNT / HEMATOCRIT / HEMOGLOBIN / LEUKOCYTE COUNT / LYMPHOCYTE / MEAN CORPUSCULAR HEMOGLOBIN / MEAN CORPUSCULAR HEMOGLOBIN CONCENTRATION / MEAN CORPUSCULAR VOLUME / MONOCYTE / NUCLEATED RED BLOOD CELLS / PLATELET COUNT: tissue Blood; for ALANINE AMINOTRANSFERASE / ALBUMIN / ALKALINE PHOSPHATASE / ASPARTATE AMINOTRANSFERASE / BLOOD UREA NITROGEN / CARBON DIOXIDE / CHLORIDE / CHOLESTEROL / CREATINE PHOSPHOKINASE / CREATININE / GLUCOSE / LACTATE DEHYDROGENASE / PHOSPHORUS / POTASSIUM / SODIUM / TOTAL BILIRUBIN / TOTAL PROTEIN / URIC ACID: tissue Plasma
[1] = 25 mg/kg, 72 h, dose level Low, time 3 day
[2] = 25 mg/kg, 120 h, dose level Low, time 5 day
[3] = 160 mg/kg, 72 h, dose level High, time 3 day
[4] = 160 mg/kg, 120 h, dose level High, time 5 day

In the case of CN[C@H](CC(C)C)C(=O)N[C@H]1C(=O)N[C@@H](CC(N)=O)C(=O)N[C@H]2C(=O)N[C@H]3C(=O)N[C@H](C(=O)N[C@H](C(=O)O)c4cc(O)cc(O)c4-c4cc3ccc4O)[C@H](O)c3ccc(c(Cl)c3)Oc3cc2cc(c3O[C@@H]2O[C@H](CO)[C@@H](O)[C@H](O)[C@H]2O[C@H]2C[C@](C)(N)[C@H](O)[C@H](C)O2)Oc2ccc(cc2Cl)[C@H]1O [VANCOMYCIN], the “ABSOLUTE BASOPHIL” value [1] is reported as 0 CELLS/uL, the “ABSOLUTE EOSINOPHIL” value [1] is reported as 39.33 CELLS/uL and the “ABSOLUTE LYMPHOCYTE” value [1] is reported as 11516.33 CELLS/uL. The “ABSOLUTE MONOCYTE” value [1] was 255.67 CELLS/uL, the “ABSOLUTE SEGMENTED NEUTROPHIL” value [1] was 1222 CELLS/uL and the BASOPHIL [1] was 0%. The EOSINOPHIL [1] was 0.33%, the “ERYTHROCYTE COUNT” value [1] was 5.26 x10E6/uL and the HEMATOCRIT [1] was 34.27%. For the same compound, the HEMOGLOBIN [1] was 13.57 G/DL, the “LEUKOCYTE COUNT” value [1] was 13.03 x10E3/uL and the LYMPHOCYTE [1] was 88.33%. For the same compound, the “MEAN CORPUSCULAR HEMOGLOBIN” value [1] was 25.87 pg, the “MEAN CORPUSCULAR HEMOGLOBIN CONCENTRATION” value [1] was 39.63 G/DL and the “MEAN CORPUSCULAR VOLUME” value [1] was 65.13 fL. The MONOCYTE [1] was 2%, the “NUCLEATED RED BLOOD CELLS” value [1] was 0 /100WBC and the “PLATELET COUNT” value [1] was 1239 x10E3/uL. For the same compound, the “ALANINE AMINOTRANSFERASE” value [1] was 49 u/L, the ALBUMIN [1] was 4.13 G/DL and the “ALKALINE PHOSPHATASE” value [1] was 403 u/L. For the same compound, the “ASPARTATE AMINOTRANSFERASE” value [1] was 88 u/L, the “BLOOD UREA NITROGEN” value [1] was 17.67 mg/dL and the “CARBON DIOXIDE” value [1] was 28 mmol/L. The CHLORIDE [1] was 100.67 MEQ/L, the CHOLESTEROL [1] was 67.33 mg/dL and the “CREATINE PHOSPHOKINASE” value [1] was 365.67 u/L. For the same compound, the CREATININE [1] was 0.22 mg/dL, the GLUCOSE [1] was 144 mg/dL and the “LACTATE DEHYDROGENASE” value [1] was 331.67 u/L. The PHOSPHORUS [1] was 12.13 mg/dL, the POTASSIUM [1] was 6.95 MEQ/L and the SODIUM [1] was 142.77 MEQ/L. The “TOTAL BILIRUBIN” value [1] was 0.23 mg/dL, the “TOTAL PROTEIN” value [1] was 5.77 G/DL and the “URIC ACID” value [1] was 1.33 mg/dL. For the same compound, the “ABSOLUTE BASOPHIL” value [2] was 0 CELLS/uL, the “ABSOLUTE EOSINOPHIL” value [2] was 41.33 CELLS/uL and the “ABSOLUTE LYMPHOCYTE” value [2] was 15492.33 CELLS/uL. The “ABSOLUTE MONOCYTE” value [2] was 306.33 CELLS/uL, the “ABSOLUTE SEGMENTED NEUTROPHIL” value [2] was 660 CELLS/uL and the BASOPHIL [2] was 0%. For the same compound, the EOSINOPHIL [2] was 0.33%, the “ERYTHROCYTE COUNT” value [2] was 5.54 x10E6/uL and the HEMATOCRIT [2] was 34.03%. The HEMOGLOBIN [2] was 13.7 G/DL, the “LEUKOCYTE COUNT” value [2] was 16.5 x10E3/uL and the LYMPHOCYTE [2] was 94%. The “MEAN CORPUSCULAR HEMOGLOBIN” value [2] was 24.73 pg, the “MEAN CORPUSCULAR HEMOGLOBIN CONCENTRATION” value [2] was 40.23 G/DL and the “MEAN CORPUSCULAR VOLUME” value [2] was 61.4 fL. The MONOCYTE [2] was 1.67%, the “NUCLEATED RED BLOOD CELLS” value [2] was 0.33 /100WBC and the “PLATELET COUNT” value [2] was 1313.33 x10E3/uL. For the same compound, the “ALANINE AMINOTRANSFERASE” value [2] was 58.33 u/L, the ALBUMIN [2] was 4.03 G/DL and the “ALKALINE PHOSPHATASE” value [2] was 397.67 u/L. The “ASPARTATE AMINOTRANSFERASE” value [2] was 92.67 u/L, the “BLOOD UREA NITROGEN” value [2] was 17.67 mg/dL and the “CARBON DIOXIDE” value [2] was 31.33 mmol/L. The CHLORIDE [2] was 100 MEQ/L, the CHOLESTEROL [2] was 76.33 mg/dL and the “CREATINE PHOSPHOKINASE” value [2] was 598 u/L. For the same compound, the CREATININE [2] was 0.26 mg/dL, the GLUCOSE [2] was 165.33 mg/dL and the “LACTATE DEHYDROGENASE” value [2] was 117 u/L. For the same compound, the PHOSPHORUS [2] was 11.5 mg/dL, the POTASSIUM [2] was 6.64 MEQ/L and the SODIUM [2] was 144.23 MEQ/L. For the same compound, the “TOTAL BILIRUBIN” value [2] was 0.17 mg/dL, the “TOTAL PROTEIN” value [2] was 5.87 G/DL and the “URIC ACID” value [2] was 1.3 mg/dL. The “ABSOLUTE BASOPHIL” value [3] was 0 CELLS/uL, the “ABSOLUTE EOSINOPHIL” value [3] was 0 CELLS/uL and the “ABSOLUTE LYMPHOCYTE” value [3] was 10993 CELLS/uL. For the same compound, the “ABSOLUTE MONOCYTE” value [3] was 34 CELLS/uL, the “ABSOLUTE SEGMENTED NEUTROPHIL” value [3] was 1339.67 CELLS/uL and the BASOPHIL [3] was 0%. The EOSINOPHIL [3] was 0%, the “ERYTHROCYTE COUNT” value [3] was 5.96 x10E6/uL and the HEMATOCRIT [3] was 37.17%. For the same compound, the HEMOGLOBIN [3] was 14.47 G/DL, the “LEUKOCYTE COUNT” value [3] was 12.37 x10E3/uL and the LYMPHOCYTE [3] was 88.67%. The “MEAN CORPUSCULAR HEMOGLOBIN” value [3] was 24.27 pg, the “MEAN CORPUSCULAR HEMOGLOBIN CONCENTRATION” value [3] was 38.97 G/DL and the “MEAN CORPUSCULAR VOLUME” value [3] was 62.4 fL. For the same compound, the MONOCYTE [3] was 0.33%, the “NUCLEATED RED BLOOD CELLS” value [3] was 0 /100WBC and the “PLATELET COUNT” value [3] was 1496.67 x10E3/uL. For the same compound, the “ALANINE AMINOTRANSFERASE” value [3] was 47.33 u/L, the ALBUMIN [3] was 4.57 G/DL and the “ALKALINE PHOSPHATASE” value [3] was 338 u/L. The “ASPARTATE AMINOTRANSFERASE” value [3] was 86.67 u/L, the “BLOOD UREA NITROGEN” value [3] was 22 mg/dL and the “CARBON DIOXIDE” value [3] was 32 mmol/L. The CHLORIDE [3] was 99 MEQ/L, the CHOLESTEROL [3] was 76 mg/dL and the “CREATINE PHOSPHOKINASE” value [3] was 389.67 u/L. For the same compound, the CREATININE [3] was 0.21 mg/dL, the GLUCOSE [3] was 156.33 mg/dL and the “LACTATE DEHYDROGENASE” value [3] was 197.67 u/L. For the same compound, the PHOSPHORUS [3] was 12.37 mg/dL, the POTASSIUM [3] was 6.51 MEQ/L and the SODIUM [3] was 142.77 MEQ/L. For the same compound, the “TOTAL BILIRUBIN” value [3] was 0.17 mg/dL, the “TOTAL PROTEIN” value [3] was 6.4 G/DL and the “URIC ACID” value [3] was 2.33 mg/dL. The “ABSOLUTE BASOPHIL” value [4] was 0 CELLS/uL, the “ABSOLUTE EOSINOPHIL” value [4] was 126 CELLS/uL and the “ABSOLUTE LYMPHOCYTE” value [4] was 16262 CELLS/uL. The “ABSOLUTE MONOCYTE” value [4] was 538.67 CELLS/uL, the “ABSOLUTE SEGMENTED NEUTROPHIL” value [4] was 2873.33 CELLS/uL and the BASOPHIL [4] was 0%. For the same compound, the EOSINOPHIL [4] was 0.67%, the “ERYTHROCYTE COUNT” value [4] was 5.73 x10E6/uL and the HEMATOCRIT [4] was 35.13%. For the same compound, the HEMOGLOBIN [4] was 14.03 G/DL, the “LEUKOCYTE COUNT” value [4] was 19.8 x10E3/uL and the LYMPHOCYTE [4] was 82.33%. For the same compound, the “MEAN CORPUSCULAR HEMOGLOBIN” value [4] was 24.47 pg, the “MEAN CORPUSCULAR HEMOGLOBIN CONCENTRATION” value [4] was 40 G/DL and the “MEAN CORPUSCULAR VOLUME” value [4] was 61.27 fL. The MONOCYTE [4] was 2.67%, the “NUCLEATED RED BLOOD CELLS” value [4] was 0 /100WBC and the “PLATELET COUNT” value [4] was 1243.33 x10E3/uL. For the same compound, the “ALANINE AMINOTRANSFERASE” value [4] was 47.33 u/L, the ALBUMIN [4] was 3.73 G/DL and the “ALKALINE PHOSPHATASE” value [4] was 287.33 u/L. The “ASPARTATE AMINOTRANSFERASE” value [4] was 77.33 u/L, the “BLOOD UREA NITROGEN” value [4] was 29.67 mg/dL and the “CARBON DIOXIDE” value [4] was 27.67 mmol/L. For the same compound, the CHLORIDE [4] was 99.33 MEQ/L, the CHOLESTEROL [4] was 72.33 mg/dL and the “CREATINE PHOSPHOKINASE” value [4] was 467.33 u/L. For the same compound, the CREATININE [4] was 0.34 mg/dL, the GLUCOSE [4] was 139 mg/dL and the “LACTATE DEHYDROGENASE” value [4] was 171.67 u/L. For the same compound, the PHOSPHORUS [4] was 10.27 mg/dL, the POTASSIUM [4] was 6.39 MEQ/L and the SODIUM [4] was 143.07 MEQ/L. For the same compound, the “TOTAL BILIRUBIN” value [4] was 0.13 mg/dL, the “TOTAL PROTEIN” value [4] was 6.03 G/DL and the “URIC ACID” value [4] was 1.4 mg/dL.
